Experimental data taken from patent publication US20070270586A1, “NOVEL CRYSTAL OF 7-[2-[(2-AMINOTHIAZOL-4-YL)-2-HYDROXYIMINOACETAMIDE-3-VINYL-3-CEPHEM-4-CARBOXYLIC ACID (SYN ISOMER) AND METHOD FOR PREPARATION THEREOF” (priority 2003, published 2007).

Assay: speed of dissolution in water (10 mg crystal in 50 mL ion exchanged water, 60 rpm, concentration by liquid chromatography)
Type: physicochemical
Conditions: for concentration (elution %): 10 mg in 50 mL ion exchanged water, 60 revolutions per minute
Experimental: The anhydrous form of a B type crystal of 7-[2-(2-aminothiazol-4-yl)-2-hydroxyiminoacetamide]-3-vinyl-3-cephem-4-carboxylic acid (syn isomer) obtained in Example 2, and the A type crystal of a compound (I) obtained by deposition of a crystal from a sodium bicarbonate aqueous solution having a pH value of 3.6 and a temperature of 22° C. in Example 1 were used, and the speed of dissolution thereof in water was measured.
Namely, each 10 mg of the above-mentioned A type crystal or B type crystal was put into 50 mL of ion exchanged water and dissolved at a revolution per minute of 60, and the concentrations of each crystal in the solution with the lapse of time were measured by liquid chromatography.

C=CC1=C(C(=O)O)N2C(=O)C(NC(=O)/C(=N\O)c3csc(N)n3)C2SC1 (stereo not drawn) [B type crystal, 7-[2-(2-aminothiazol-4-yl)-2-hydroxyiminoacetamide]-3-vinyl-3-cephem-4-carboxylic acid (syn isomer)]
solubility in water compared with conventional A type crystal (conclusion from Table 5): more excellent solubility in water as compared with a conventional A type crystal | concentration (elution %) (lapse time 110 min): 72.8 elution % | concentration (elution %) (lapse time 340 min): 78.4 elution % | concentration (elution %) (lapse time 700 min): 91.1 elution %

C=CC1=C(C(=O)O)N2C(=O)C(NC(=O)/C(=N\O)c3csc(N)n3)C2SC1 (stereo not drawn) [A type crystal, 7-[2-(2-aminothiazol-4-yl)-2-hydroxyiminoacetamide]-3-vinyl-3-cephem-4-carboxylic acid (syn isomer), reference compound]
concentration (elution %) (lapse time 110 min): 32.7 elution % | concentration (elution %) (lapse time 340 min): 39.7 elution % | concentration (elution %) (lapse time 700 min): 63.7 elution %
